The values that follow are results of earlier work, collected in patent US4127532A, “Novel heptapeptides, intermediates therefor, and compositions and methods employing said heptapeptides” (priority 1977, dated 1978).

For series [1] the following is noted: injected directly into the brain of the rat.
Series [2] deals with partially purified brain opiate receptor sites.
Series [3] relates to opiate activity.

“H-Tyr-Gly-Gly-Phe-Met-OH [methionine enkephalin]”: the analgesic activity result in series [1] was “weak analgesic agent of short duration”. Besides, the “binding to partially purified brain opiate receptor sites” value in series [2] is “binds stereo-specifically”. For the same substance, the “activity in bioassays for opiate activity” value in series [3] was “very active”.
